We go through eleven compounds from patent publication US11072606B2, “Compositions and methods for treating diseases and conditions” (University of Pittsburgh—Of the Commonwealth System of …, priority 2014, dated 2021).

Values after ≈ are worked out from the molar mass of the structure shown. Where only a bound is given, the exact number is not on record here.

The test system of data set [1] is LPS induced lung inflammation. Put plainly: LPS induced lung inflammation in mice (FIG. 5). The data set is classed as in vivo. To be noted: compound P.O., LPS 3 mg/kg i.t., 18 h, lavage protein, cell counts, cytokine secretion, *P<0.05 versus Vehicle. As for the experimental part:
BC-1421 was administered to mice though P.O., and mice were then immediately challenged with LPS (3 mg/kg, i.t.) for an additional 18 h. Mice were then euthanized and lungs were lavaged with saline, harvested, and then homogenized. Lavage protein, cell counts and cytokine secretion were measured in. The data represent n=4-5 mice/group, *P<0.05 versus Vehicle.

Data set [2] has as its system TNFα cytokine release. Put plainly: LPS-induced TNFα cytokine release in PBMC (ELISA). Format: cell-based. Particulars: LPS 50 ng/ml for 16 hours concurrently with compound, TNFα by ELISA. As for the experimental part: Peripheral blood mononuclear cells (PBMC) (0.2 ml at 0.3×10^6/ml) were treated with lipopolysaccharide (LPS) (50 ng/ml) for 16 hours concurrently with each compound tested at different concentrations. TNFα cytokine release was monitored by ELISA. These concentrations were used to calculate the IC50.

Data set [3] is described as follows: U937 monocyte cell death, Trypan blue staining. The data set is classed as cell-based. Particulars: human; U937 monocytes, compound for 16 hours, Trypan blue dead cells; read-out: LC50. As for the experimental part: U937 monocytes (0.2 ml at 0.3×10^6/ml) were treated with each compound at different concentrations for 16 hours. The cells were then stained with Trypan blue to identify dead cells, and to calculate the LC50. Combined values were used to generate therapeutic indexes (TI)=LC50/IC50.

For the compound `Fc1cc(CNCCNCc2ccc(-c3ncccn3)c(F)c2)ccc1-c1ncccn1` [BC-1421, N^1,N^2-bis(3-fluoro-4-(pyrimidin-2-yl)benzyl)ethane-1,2-diamine], the “LPS induced lung inflammation” value in data set [1] is on record as “reduces LPS induced lung inflammation”.

For the compound `c1ncc(-c2ccc(CNCCNCc3ccc(-c4cncnc4)cc3)cc2)cn1` [Compound 201], the IC50 in data set [2] is below 2 µg/mL. The CC50 at 16 h in data set [3] was above 100 µg/mL.

On to `c1nnc(-c2ccc(CNCCNCc3ccc(-c4nnco4)cc3)cc2)o1` [Compound 202], for which the IC50 in data set [2] is below 2 µg/mL. The CC50 at 16 h in data set [3] was above 100 µg/mL.

`c1ncn(-c2ccc(CNCCNCc3ccc(-n4cncn4)cc3)cc2)n1` [Compound 203]: the IC50 in data set [2] lay within 2 to 20 µg/mL (≈ 5.34 to 53.4 µM). Further, the CC50 at 16 h in data set [3] is above 100 µg/mL.

For the compound `C[C@@H](CNCc1ccc(-c2ncccn2)cc1)NCc1ccc(-c2ncccn2)cc1` [Compound 204], the IC50 in data set [2] is below 2 µg/mL. In addition, in data set [3], the CC50 at 16 h is above 100 µg/mL.

Consider `C[C@H](CNCc1ccc(-c2ncccn2)cc1)NCc1ccc(-c2ncccn2)cc1` [Compound 205], for which, in data set [2], the IC50 is below 2 µg/mL. For the same compound, in data set [3], the CC50 at 16 h was above 100 µg/mL.

Take `CC(C)(CNCc1ccc(-c2ncccn2)cc1)NCc1ccc(-c2ncccn2)cc1` [Compound 206]: in data set [2], the IC50 was below 2 µg/mL. The CC50 at 16 h in data set [3] was above 100 µg/mL.

Consider `CC(C)(NCc1ccc(-c2ncccn2)cc1)C(C)(C)NCc1ccc(-c2ncccn2)cc1` [Compound 207], for which, in data set [2], the IC50 was in the range of 2 to 20 µg/mL (≈ 4.42 to 44.2 µM). Also, in data set [3], the CC50 at 16 h is above 100 µg/mL.

As to `c1ccc(-c2ncc(CNCCNCc3cnc(-c4ccccc4)nc3)cn2)cc1` [Compound 208], the half-inhibitory concentration (IC50) in data set [2] lay in the range of 2 to 20 µg/mL (≈ 5.04 to 50.4 µM). For the same compound, the CC50 at 16 h in data set [3] was in the range of 10 to 100 µg/mL (≈ 25.2 to 252 µM).

In the case of `c1ccc(-c2ncc(CNCCNCc3cnc(-c4ccccn4)nc3)cn2)nc1` [Compound 209], in data set [2], the IC50 was in the range of 2 to 20 µg/mL (≈ 5.02 to 50.2 µM). Further, the CC50 at 16 h in data set [3] is 10 to 100 µg/mL (≈ 25.1 to 251 µM).

`c1nc(N2CCCC2)ncc1CNCCCCNCc1cnc(N2CCCC2)nc1` [Compound 210]: the IC50 in data set [2] was below 2 µg/mL. The CC50 at 16 h in data set [3] lay in the range of 1 to 10 µg/mL (≈ 2.44 to 24.4 µM).
